Experiment [1] concerns prostate line LNCap. Description: In vitro cell culture growth assay (MTS), LNCap. Format: cell-based. Particulars: Homo sapiens, LNCaP, 72 h, LNCap cells, three days after drug treatment. The essentials: (§1)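 Cells were plated and, one day later, treated with inhibitors. Three days after treatment, viable cell density was measured by MTS dye conversion, read as absorbance at 490 nm. Effects are expressed as percent of control growth versus vehicle-treated cells on the same plate.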

Experiment [2] concerns the target T1, PI3K (Homo sapiens, UniProt P48736).
T1 construct: PI3 Kinase γ IC50; other: PI3 Kinase γ; other: PI3 Kinase γ isoform, fluorescence polarization
As to the kind of experiment: Fluorescence polarization assay for PI3K. The following applies: PI3 Kinase γ; read-out: PI3 Kinase γ IC50. Format: biochemical. Put shortly: (§2)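 Fluorescence-polarization competition readout: after 30–60 min of PIP2/ATP turnover in 1% DMSO, a stop mix with GST-GRP (70 nM) and red probe (10 nM) was added.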
On the technique in general: Polarisation of emitted light reports the rotation of a fluorescent probe.

Experiment [3] has as its target T2, PI3K (Homo sapiens, UniProt P42336).
T2 construct: PI3 Kinase α IC50; other: PI3 Kinase α; other: PI3 Kinase α isoform, fluorescence polarization
Description: Fluorescence polarization assay for PI3K. Particulars: PI3 Kinase α; read-out: PI3 Kinase α IC50. It is filed as biochemical. Put shortly:
as §2

Experiment [4] has as its system breast line MDA468. As to the kind of experiment: In vitro cell culture growth assay (MTS), MDA468. The following applies: Homo sapiens, 72 h, MDA468 cells, three days after drug treatment. It is filed as cell-based. The essentials:
as §1

Experiment [5] addresses T3, Human mTOR (FLAG-TOR) (Homo sapiens, UniProt P42345).
T3 construct: FLAG
Description: Human mTOR kinase assay with purified enzyme, DELFIA format. It is filed as biochemical. The essentials:
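DELFIA readout: Eu-anti-P(T389)-S6K antibody (40 ng/mL, 1 h) on captured His6-S6K from the stopped reaction. Kinase step used purified FLAG-tagged human mTOR with test compound in HEPES (pH 7.4)/MnCl2/DTT buffer, 2 h at room temperature (linear 1–6 h), terminated by EDTA/EGTA.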

As a reminder, the IC50 is the concentration at which inhibition is half-maximal.

Where only a bound is given, the exact number is not on record here.

T2 sequence (P42336 whole entry, canonical isoform): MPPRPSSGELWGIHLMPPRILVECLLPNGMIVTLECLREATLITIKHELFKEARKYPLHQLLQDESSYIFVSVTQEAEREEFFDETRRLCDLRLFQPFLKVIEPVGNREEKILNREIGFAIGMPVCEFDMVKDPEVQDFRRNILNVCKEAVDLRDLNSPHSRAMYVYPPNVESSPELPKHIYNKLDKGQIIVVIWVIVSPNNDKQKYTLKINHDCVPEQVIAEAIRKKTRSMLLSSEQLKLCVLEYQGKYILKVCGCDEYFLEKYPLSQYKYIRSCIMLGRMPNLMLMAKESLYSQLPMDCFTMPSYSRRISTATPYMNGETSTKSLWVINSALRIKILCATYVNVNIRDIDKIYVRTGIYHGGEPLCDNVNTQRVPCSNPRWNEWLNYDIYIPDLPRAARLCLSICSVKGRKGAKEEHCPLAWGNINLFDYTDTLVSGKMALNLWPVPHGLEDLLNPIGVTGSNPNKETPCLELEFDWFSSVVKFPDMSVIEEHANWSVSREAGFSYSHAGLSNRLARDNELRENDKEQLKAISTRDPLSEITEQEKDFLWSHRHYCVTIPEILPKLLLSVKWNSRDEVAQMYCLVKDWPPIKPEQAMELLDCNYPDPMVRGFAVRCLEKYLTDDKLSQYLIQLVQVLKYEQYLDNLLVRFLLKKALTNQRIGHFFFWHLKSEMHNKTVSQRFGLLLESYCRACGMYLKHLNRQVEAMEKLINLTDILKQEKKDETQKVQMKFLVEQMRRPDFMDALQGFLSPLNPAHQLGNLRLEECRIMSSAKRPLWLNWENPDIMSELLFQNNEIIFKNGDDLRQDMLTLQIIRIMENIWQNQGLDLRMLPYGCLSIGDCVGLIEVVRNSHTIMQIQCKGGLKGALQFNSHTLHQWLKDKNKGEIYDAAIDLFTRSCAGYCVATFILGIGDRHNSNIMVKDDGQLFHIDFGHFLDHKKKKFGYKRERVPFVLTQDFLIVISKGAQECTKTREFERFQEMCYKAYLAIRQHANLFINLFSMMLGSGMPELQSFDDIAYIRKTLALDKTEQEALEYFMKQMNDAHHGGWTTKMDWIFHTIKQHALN
T1 sequence (P48736 whole entry, canonical isoform): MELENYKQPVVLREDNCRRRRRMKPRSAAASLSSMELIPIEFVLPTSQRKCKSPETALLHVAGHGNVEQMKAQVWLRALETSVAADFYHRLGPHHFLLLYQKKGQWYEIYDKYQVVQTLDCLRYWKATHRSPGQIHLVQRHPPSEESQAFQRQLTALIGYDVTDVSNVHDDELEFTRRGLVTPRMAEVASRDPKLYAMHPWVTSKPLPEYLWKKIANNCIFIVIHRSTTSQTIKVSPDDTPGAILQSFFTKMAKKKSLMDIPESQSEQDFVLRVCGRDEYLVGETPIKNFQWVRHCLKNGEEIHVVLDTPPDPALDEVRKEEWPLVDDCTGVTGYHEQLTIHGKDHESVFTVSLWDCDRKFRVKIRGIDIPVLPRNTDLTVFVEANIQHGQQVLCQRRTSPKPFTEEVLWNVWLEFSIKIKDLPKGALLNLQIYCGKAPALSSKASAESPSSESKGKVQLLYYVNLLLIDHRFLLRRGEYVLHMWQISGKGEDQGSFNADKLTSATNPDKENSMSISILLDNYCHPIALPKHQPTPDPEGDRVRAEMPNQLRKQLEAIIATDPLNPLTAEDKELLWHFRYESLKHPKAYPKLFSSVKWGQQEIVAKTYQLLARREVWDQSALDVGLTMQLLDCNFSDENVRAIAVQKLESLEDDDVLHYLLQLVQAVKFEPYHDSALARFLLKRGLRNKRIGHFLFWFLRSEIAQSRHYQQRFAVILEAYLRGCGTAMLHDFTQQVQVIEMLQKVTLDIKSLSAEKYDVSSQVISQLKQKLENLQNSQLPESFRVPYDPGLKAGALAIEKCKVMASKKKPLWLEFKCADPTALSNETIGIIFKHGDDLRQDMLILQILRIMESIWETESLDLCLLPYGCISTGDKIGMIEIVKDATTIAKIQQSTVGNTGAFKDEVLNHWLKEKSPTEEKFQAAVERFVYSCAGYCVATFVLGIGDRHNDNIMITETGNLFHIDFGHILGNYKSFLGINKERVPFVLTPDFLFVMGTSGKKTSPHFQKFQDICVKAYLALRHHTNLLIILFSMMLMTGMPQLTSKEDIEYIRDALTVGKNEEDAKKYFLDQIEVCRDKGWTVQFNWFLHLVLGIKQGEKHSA

As to `O=C(Nc1ccc(-c2nc(N3CC4CCC(C3)O4)c3cnn(C4CCC5(CC4)OCCO5)c3n2)cc1)OCCO` [Example 121, 2-hydroxyethyl {4-[1-(1,4-dioxaspiro[4.5]dec-8-yl)-4-(8-oxa-3-azabicyclo[3.2.1]oct-3-yl)-1H-pyrazolo[3,4-d]pyrimidin-6-yl]phenyl}carbamate], the IC50 in experiment [1] is 2 nM; in experiment [2], over 10 µM; in experiment [3], 7.65 µM; in experiment [4], 63 nM; in experiment [5], 0.5 nM.

As for `O=C(Nc1ccc(-c2nc(N3CC4CCC(C3)O4)c3cnn(C4CCC5(CC4)OCCO5)c3n2)cc1)OCCCO` [Example 122, 3-hydroxypropyl {4-[1-(1,4-dioxaspiro[4.5]dec-8-yl)-4-(8-oxa-3-azabicyclo[3.2.1]oct-3-yl)-1H-pyrazolo[3,4-d]pyrimidin-6-yl]phenyl}carbamate], the half-inhibitory concentration (IC50) was 190 nM in experiment [1]; over 10 µM in experiment [2]; over 10 µM in experiment [3]; 1800 nM in experiment [4]; 4 nM in experiment [5].

Turning to `CCNC(=O)Nc1ccc(-c2nc(N3CC4CCC(C3)O4)c3cnn(C4CCC5(CC4)OCCO5)c3n2)cc1` [Example 123, 1-{4-[1-(1,4-dioxaspiro[4.5]dec-8-yl)-4-(8-oxa-3-azabicyclo[3.2.1]oct-3-yl)-1H-pyrazolo[3,4-d]pyrimidin-6-yl]phenyl}-3-ethylurea], the concentration for half-maximal inhibition (IC50) is 1 nM in experiment [1]; over 10 µM in experiment [2]; 4.58 µM in experiment [3]; 9 nM in experiment [4]; 0.26 nM in experiment [5].

With `O=C(NCCF)Nc1ccc(-c2nc(N3CC4CCC(C3)O4)c3cnn(C4CCC5(CC4)OCCO5)c3n2)cc1` [Example 124, 1-{4-[1-(1,4-dioxaspiro[4.5]dec-8-yl)-4-(8-oxa-3-azabicyclo[3.2.1]oct-3-yl)-1H-pyrazolo[3,4-d]pyrimidin-6-yl]phenyl}-3-(2-fluoroethyl)urea], the IC50 is 1 nM in experiment [1]; over 10 µM in experiment [2]; 5.13 µM in experiment [3]; 20 nM in experiment [4]; 0.225 nM in experiment [5].

Regarding `O=C(NCCO)Nc1ccc(-c2nc(N3CC4CCC(C3)O4)c3cnn(C4CCC5(CC4)OCCO5)c3n2)cc1` [Example 125, 1-{4-[1-(1,4-dioxaspiro[4.5]dec-8-yl)-4-(8-oxa-3-azabicyclo[3.2.1]oct-3-yl)-1H-pyrazolo[3,4-d]pyrimidin-6-yl]phenyl}-3-(2-hydroxyethyl)urea], the IC50 is 8 nM in experiment [1]; over 10 µM in experiment [2]; 1.35 µM in experiment [3]; 40 nM in experiment [4]; 0.235 nM in experiment [5].

For `O=C(Nc1ccc(-c2nc(N3CC4CCC(C3)O4)c3cnn(C4CCC5(CC4)OCCO5)c3n2)cc1)NC1CC1` [Example 126, 1-cyclopropyl-3-{4-[1-(1,4-dioxaspiro[4.5]dec-8-yl)-4-(8-oxa-3-azabicyclo[3.2.1]oct-3-yl)-1H-pyrazolo[3,4-d]pyrimidin-6-yl]phenyl}urea], the 50% inhibitory concentration (IC50) in experiment [1] was 2 nM; in experiment [2], over 10 µM; in experiment [3], 12 µM; in experiment [4], 58 nM; in experiment [5], 0.22 nM.

For `O=C(Nc1ccccc1)Nc1ccc(-c2nc(N3CC4CCC(C3)O4)c3cnn(C4CCC5(CC4)OCCO5)c3n2)cc1` [Example 127, 1-{4-[1-(1,4-dioxaspiro[4.5]dec-8-yl)-4-(8-oxa-3-azabicyclo[3.2.1]oct-3-yl)-1H-pyrazolo[3,4-d]pyrimidin-6-yl]phenyl}-3-phenylurea], the IC50 in experiment [1] was 4 nM; in experiment [2], over 10 µM; in experiment [3], 0.353 µM; in experiment [4], 18 nM; in experiment [5] it was 0.155 nM.

As to `O=C(Nc1ccncc1)Nc1ccc(-c2nc(N3CC4CCC(C3)O4)c3cnn(C4CCC5(CC4)OCCO5)c3n2)cc1` [Example 128, 1-{4-[1-(1,4-dioxaspiro[4.5]dec-8-yl)-4-(8-oxa-3-azabicyclo[3.2.1]oct-3-yl)-1H-pyrazolo[3,4-d]pyrimidin-6-yl]phenyl}-3-pyridin-4-ylurea], the 50% inhibitory concentration (IC50) was under 1 nM in experiment [1]; 1.93 µM in experiment [2]; 0.22 µM in experiment [3]; 1 nM in experiment [4]; 0.125 nM in experiment [5].

With `O=C(Nc1ccc(-c2nc(N3CC4CCC(C3)O4)c3cnn(C4CCC5(CC4)OCCO5)c3n2)cc1)OCC(F)(F)F` [Example 129, 2,2,2-trifluoroethyl {4-[1-(1,4-dioxaspiro[4.5]dec-8-yl)-4-(8-oxa-3-azabicyclo[3.2.1]oct-3-yl)-1H-pyrazolo[3,4-d]pyrimidin-6-yl]phenyl}carbamate], the IC50 is 800 nM in experiment [1]; over 10 µM in experiment [2]; over 10 µM in experiment [3]; 4900 nM in experiment [4]; 10.4 nM in experiment [5].

On to `O=C(Nc1ccc(-c2nc(N3CC4CCC(C3)O4)c3cnn(C4CCC5(CC4)OCCO5)c3n2)cc1)OCCF` [Example 130, 2-fluoroethyl {4-[1-(1,4-dioxaspiro[4.5]dec-8-yl)-4-(8-oxa-3-azabicyclo[3.2.1]oct-3-yl)-1H-pyrazolo[3,4-d]pyrimidin-6-yl]phenyl}carbamate], for which the IC50 in experiment [1] was 45 nM; in experiment [2] it was over 10 µM; in experiment [3], over 10 µM; in experiment [4], 800 nM; in experiment [5], 1.5 nM.

Take `O=C1OCCN1c1ccc(-c2nc(N3CC4CCC(C3)O4)c3cnn(C4CCC5(CC4)OCCO5)c3n2)cc1` [Example 131, 3-{4-[1-(1,4-dioxaspiro[4.5]dec-8-yl)-4-(8-oxa-3-azabicyclo[3.2.1]oct-3-yl)-1H-pyrazolo[3,4-d]pyrimidin-6-yl]phenyl}-1,3-oxazolidin-2-one]: the IC50 in experiment [1] was over 60000 nM; in experiment [2], over 10 µM; in experiment [3] it was over 10 µM; in experiment [4], over 60000 nM; in experiment [5], 635 nM.

On to `OCCNc1ccc(-c2nc(N3CC4CCC(C3)O4)c3cnn(C4CCC5(CC4)OCCO5)c3n2)cc1` [Example 132, 2-({4-[1-(1,4-dioxaspiro[4.5]dec-8-yl)-4-(8-oxa-3-azabicyclo[3.2.1]oct-3-yl)-1H-pyrazolo[3,4-d]pyrimidin-6-yl]phenyl}amino)ethanol], for which the IC50 in experiment [1] is 580 nM; in experiment [2], over 10 µM; in experiment [3], over 10 µM; in experiment [4], 5000 nM; in experiment [5] it was 15.5 nM.

With `CN(C)CCNC(=O)Nc1ccc(-c2nc(N3CC4CCC(C3)O4)c3cnn(C4CCC5(CC4)OCCO5)c3n2)cc1` [Example 133, 1-[2-(dimethylamino)ethyl]-3-{4-[1-(1,4-dioxaspiro[4.5]dec-8-yl)-4-(8-oxa-3-azabicyclo[3.2.1]oct-3-yl)-1H-pyrazolo[3,4-d]pyrimidin-6-yl]phenyl}urea], the IC50 in experiment [1] was found to be 90 nM; in experiment [2], 7.64 µM; in experiment [3], 0.905 µM; in experiment [4] it was 700 nM; in experiment [5], 18.5 nM.

Take `CN1CCN(CCNC(=O)Nc2ccc(-c3nc(N4CC5CCC(C4)O5)c4cnn(C5CCC6(CC5)OCCO6)c4n3)cc2)CC1` [Example 134, 1-{4-[1-(1,4-dioxaspiro[4.5]dec-8-yl)-4-(8-oxa-3-azabicyclo[3.2.1]oct-3-yl)-1H-pyrazolo[3,4-d]pyrimidin-6-yl]phenyl}-3-[2-(4-methylpiperazin-1-yl)ethyl]urea]: the half-inhibitory concentration (IC50) in experiment [1] is 390 nM; in experiment [2], over 10 µM; in experiment [3], 2.44 µM; in experiment [4], 4000 nM; in experiment [5] it was 17.5 nM.

In the case of `CN1CCN(c2ccc(NC(=O)Nc3ccc(-c4nc(N5CC6CCC(C5)O6)c5cnn(C6CCC7(CC6)OCCO7)c5n4)cc3)cc2)CC1` [Example 135, 1-{4-[1-(1,4-dioxaspiro[4.5]dec-8-yl)-4-(8-oxa-3-azabicyclo[3.2.1]oct-3-yl)-1H-pyrazolo[3,4-d]pyrimidin-6-yl]phenyl}-3-[4-(4-methylpiperazin-1-yl)phenyl]urea], the half-inhibitory concentration (IC50) in experiment [1] was determined as 1 nM; in experiment [2] it was 1.71 µM; in experiment [3], 0.146 µM; in experiment [4], 1 nM; in experiment [5] it was 0.268 nM.

Regarding `COC(=O)Nc1ccc(-c2nc(N3CC4CCC(C3)O4)c3cnn(C4CCC(=O)CC4)c3n2)cc1` [Example 136, methyl {4-[4-(8-oxa-3-azabicyclo[3.2.1]oct-3-yl)-1-(4-oxocyclohexyl)-1H-pyrazolo[3,4-d]pyrimidin-6-yl]phenyl}carbamate], the IC50 in experiment [1] was 40 nM; in experiment [2], over 10 µM; in experiment [3] it was 3.9 µM; in experiment [4], 1100 nM; in experiment [5], 6.25 nM.

For `COC(=O)Nc1ccc(-c2nc(N3CC4CCC(C3)O4)c3cnn(C4CCC(O)CC4)c3n2)cc1` (stereo not shown) [Example 137, methyl {4-[1-(4-hydroxycyclohexyl)-4-(8-oxa-3-azabicyclo[3.2.1]oct-3-yl)-1H-pyrazolo[3,4-d]pyrimidin-6-yl]phenyl}carbamate], the IC50 was 200 nM in experiment [1]; over 10 µM in experiment [2]; 6.66 µM in experiment [3]; 1700 nM in experiment [4]; 3.75 nM in experiment [5].

The record behind these values is patent publication US8129371B2, “Thienopyrimidine and pyrazolopyrimidine compounds and their use as mTOR kinase and PI3 kinase inhibitors” (Wyeth LLC, priority 2007, dated 2012).
